This note sets out measurements from patent EP0315019A2, “Fluoromethoxyphenyl-dihydropyridines, process for their preparation and their use in drugs” (BAYER AG, priority 1987, dated 1989).

The assay has as its system isolierter Meerschweinchen-Herzvorhöfe. The assay is described as follows: Effect on contraction amplitude of isolated guinea pig heart atria. As to conditions: Wirkstoffkonzentration 10⁻³ g/l, read-out: Substanzeffekte auf die Kontraktionsamplitude, Änderung in %.

Turning to `CCCCCCCCCCOC(=O)C1=C(C)NC(C)=C([N+](=O)[O-])C1c1ccccc1OC(F)F` (racemic) [Beispiel 1, 4-(2-Difluormethoxyphenyl)-1,4-dihydro-2,6-dimethyl-3-nitro-pyridin-5-carbonsäure-decylester], the activation at 1 µg/mL turned out to be 45%.
